Reference: patent US11000033B2, “Ketone or oxime compound, and herbicide” (NISSAN CHEMICAL CORPORATION, priority 2014, dated 2021)

Tests used:
Assay type in all cases: in vivo
[1] = tested on: Amaranthus retroflexus; experiment: Test Example 4: herbicidal effect by soil treatment (symbol N); conditions: 320 g/ha
How it was run: (§1)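 Seeds were sown in sterilized diluvial soil, covered with about 1.5 cm of soil, and the soil surface was sprayed with a water-diluted emulsion of the compound at a predetermined rate. Plants grew in a greenhouse at 25° C. to 30° C.; effects were scored visually 3 weeks after application.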

[2] = tested on: beet; experiment: Test Example 5: effect on crop by foliage application, plastic box (symbol f); conditions: 320 g/ha, 3 weeks after application
How it was run: (§2)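 Sterilized diluvial soil, plastic box (21 × 13 × 7 cm); spot sowing, ~1.5 cm soil cover; greenhouse 25–30° C.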

[3] = tested on: wheat; experiment: Test Example 5: effect on crop by foliage application, plastic box (symbol e); conditions: 320 g/ha, 3 weeks after application
How it was run: as §2

[4] = tested on: Stellaria media; experiment: Test Example 5: herbicidal effect by foliage application, plastic box (symbol P); conditions: 320 g/ha, 3 weeks after application
How it was run: (§3)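 Herbicide, formulated as an emulsion and diluted in water, is sprayed onto the aerial parts of 14-day seedlings. These were grown at 25° C. to 30° C. in sterilized diluvial soil; effects are graded after 3 weeks.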

[5] = tested on: Echinochloa crus-galli var. crus-galli; experiment: Test Example 4: herbicidal effect by soil treatment (symbol H); conditions: 320 g/ha
How it was run: as §1

[6] = tested on: rapeseed; experiment: Test Example 4: effect on crop by soil treatment (symbol g); conditions: 320 g/ha
How it was run: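 Plants are raised in a greenhouse (25° C. to 30° C.) from spot-sown seed, which sits under about 1.5 cm of sterilized diluvial soil in a box shared with weed species.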

[7] = tested on: rice plant; experiment: Test Example 5: effect on crop by foliage application, plastic box (symbol b); conditions: 320 g/ha, 3 weeks after application
How it was run: as §2

[8] = tested on: Echinochloa oryzacola Vasing.; experiment: Test Example 2: herbicidal activity, application during weed generation in submerged conditions (symbol A); conditions: Table 23; application herbicide amount 320 g/ha; grade 0-5 by criteria of Test Example 1
How it was run: (§4)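 Paddy pot test, submerged (4 cm water), alluvial soil, mixed sowing; greenhouse 25–30° C. Emulsion formulation diluted to predetermined rate, applied onto floodwater at 1–2 leaf stage. Visual herbicidal rating at 3 wk post-treatment.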

[9] = tested on: Echinochloa crus-galli var. crus-galli; experiment: Test Example 3: herbicidal effect by foliage application, Wagner pot (symbol H); conditions: application herbicide amount 320 g/ha
How it was run: (§5)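 Foliar spray of water-diluted emulsion formulation at a predetermined herbicide amount onto 14-day-old plants in flooded alluvial soil (water depth 0.1–0.5 cm), greenhouse 25–30 °C; rice sown alongside. Scored 3 wk post-application on set criteria.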

[10] = tested on: Amaranthus retroflexus; experiment: Test Example 5: herbicidal effect by foliage application, plastic box (symbol N); conditions: 320 g/ha, 3 weeks after application
How it was run: as §3

[11] = tested on: Scirpus juncoides; experiment: Test Example 2: herbicidal activity, application during weed generation in submerged conditions (symbol B); conditions: Table 23; application herbicide amount 320 g/ha; grade 0-5 by criteria of Test Example 1
How it was run: as §4

[12] = tested on: Digitaria ciliaris; experiment: Test Example 4: herbicidal effect by soil treatment (symbol F); conditions: 320 g/ha
How it was run: as §1

[13] = tested on: Lolium multiflorum Lam.; experiment: Test Example 4: herbicidal effect by soil treatment (symbol K); conditions: 320 g/ha
How it was run: as §1

[14] = tested on: Digitaria ciliaris; experiment: Test Example 5: herbicidal effect by foliage application, plastic box (symbol F); conditions: 320 g/ha, 3 weeks after application
How it was run: as §3

[15] = tested on: Avena fatua; experiment: Test Example 5: herbicidal effect by foliage application, plastic box (symbol I); conditions: 320 g/ha, 3 weeks after application
How it was run: as §3

[16] = tested on: Leptochloa chinensis; experiment: Test Example 3: herbicidal effect by foliage application, Wagner pot (symbol D); conditions: application herbicide amount 320 g/ha
How it was run: as §5

[17] = tested on: Veronica persica; experiment: Test Example 5: herbicidal effect by foliage application, plastic box (symbol R); conditions: 320 g/ha, 3 weeks after application
How it was run: as §3

[18] = tested on: Apera spica-venti; experiment: Test Example 4: herbicidal effect by soil treatment (symbol L); conditions: 320 g/ha
How it was run: as §1

[19] = tested on: Chenopodium album; experiment: Test Example 5: herbicidal effect by foliage application, plastic box (symbol O); conditions: 320 g/ha, 3 weeks after application
How it was run: as §3

[20] = tested on: Abutilon theophrasti; experiment: Test Example 4: herbicidal effect by soil treatment (symbol M); conditions: 320 g/ha
How it was run: as §1

Row | Structure (SMILES) | N: Amaranthus retroflexus, herbicidal effect grade [1] | f: beet, effect on crop (criteria 0-5) [2] | e: wheat, effect on crop (criteria 0-5) [3] | P: Stellaria media, herbicidal effect (criteria 0-5) [4] | H: Echinochloa crus-galli var. crus-galli, herbicidal effect grade [5] | g: rapeseed, effect grade on crop [6] | b: directly sowed rice plant, effect on crop (criteria 0-5) [7] | Herbicidal effect grade, A: Echinochloa oryzacola Vasing. [8] | herbicidal effect on H (Echinochloa crus-galli var. crus-galli), grade 0-5 [9] | N: Amaranthus retroflexus, herbicidal effect (criteria 0-5) [10] | Herbicidal effect grade, B: Scirpus juncoides [11] | F: Digitaria ciliaris, herbicidal effect grade [12] | K: Lolium multiflorum Lam., herbicidal effect grade [13] | F: Digitaria ciliaris, herbicidal effect (criteria 0-5) [14] | I: Avena fatua, herbicidal effect (criteria 0-5) [15] | herbicidal effect on D (Leptochloa chinensis), grade 0-5 [16] | R: Veronica persica, herbicidal effect (criteria 0-5) [17] | L: Apera spica-venti, herbicidal effect grade [18] | O: Chenopodium album, herbicidal effect (criteria 0-5) [19] | M: Abutilon theophrasti, herbicidal effect grade [20]
1 | COCCOC(=O)OC1=C(c2c(C)cc(C)cc2C)C(=O)C(CC(C)=NOC)C1 (stereo not drawn) [1-147] | 5 (Herbicidal ratio of 90% or more (almost completely withered)) | 3 (Herbicidal ratio of 40% or higher and lower than 70%) | 5 (Herbicidal ratio of 90% or more (almost completely withered)) | 3 (Herbicidal ratio of 40% or higher and lower than 70%) | 5 (Herbicidal ratio of 90% or more (almost completely withered)) | 4 (Herbicidal ratio of 70% or higher and lower than 90%) | 5 (Herbicidal ratio of 90% or more (almost completely withered)) | 5 (Herbicidal ratio of 90% or more (almost completely withered)) | 5 (Herbicidal ratio of 90% or more (almost completely withered)) | 1 (Herbicidal ratio of 5% or higher and lower than 20%) | 5 (Herbicidal ratio of 90% or more (almost completely withered)) | 5 (Herbicidal ratio of 90% or more (almost completely withered)) | 5 (Herbicidal ratio of 90% or more (almost completely withered)) | 5 (Herbicidal ratio of 90% or more (almost completely withered)) | 5 (Herbicidal ratio of 90% or more (almost completely withered)) | 5 (Herbicidal ratio of 90% or more (almost completely withered)) | 4 (Herbicidal ratio of 70% or higher and lower than 90%) | 5 (Herbicidal ratio of 90% or more (almost completely withered)) | 1 (Herbicidal ratio of 5% or higher and lower than 20%) | 5 (Herbicidal ratio of 90% or more (almost completely withered))
2 | CON=C(C)CC1CC(OC(=O)C(C)(C)c2ccc(Cl)cc2)=C(c2c(C)cc(C)cc2C)C1=O (stereo not drawn) [1-148] | 2 (Herbicidal ratio of 20% or higher and lower than 40%) | 3 (Herbicidal ratio of 40% or higher and lower than 70%) | 5 (Herbicidal ratio of 90% or more (almost completely withered)) | 3 (Herbicidal ratio of 40% or higher and lower than 70%) | 5 (Herbicidal ratio of 90% or more (almost completely withered)) | 4 (Herbicidal ratio of 70% or higher and lower than 90%) | 5 (Herbicidal ratio of 90% or more (almost completely withered)) | 5 (Herbicidal ratio of 90% or more (almost completely withered)) | 5 (Herbicidal ratio of 90% or more (almost completely withered)) | 2 (Herbicidal ratio of 20% or higher and lower than 40%) | 4 (Herbicidal ratio of 70% or higher and lower than 90%) | 5 (Herbicidal ratio of 90% or more (almost completely withered)) | 5 (Herbicidal ratio of 90% or more (almost completely withered)) | 5 (Herbicidal ratio of 90% or more (almost completely withered)) | 5 (Herbicidal ratio of 90% or more (almost completely withered)) | 5 (Herbicidal ratio of 90% or more (almost completely withered)) | 3 (Herbicidal ratio of 40% or higher and lower than 70%) | 5 (Herbicidal ratio of 90% or more (almost completely withered)) | 1 (Herbicidal ratio of 5% or higher and lower than 20%) | 5 (Herbicidal ratio of 90% or more (almost completely withered))
3 | CON=C(C)CC1CC(OC(=O)c2ccc(C(F)(F)F)cc2)=C(c2c(C)cc(C)cc2C)C1=O (stereo not drawn) [1-149] | 4 (Herbicidal ratio of 70% or higher and lower than 90%) | 2 (Herbicidal ratio of 20% or higher and lower than 40%) | 5 (Herbicidal ratio of 90% or more (almost completely withered)) | 3 (Herbicidal ratio of 40% or higher and lower than 70%) | 5 (Herbicidal ratio of 90% or more (almost completely withered)) | 4 (Herbicidal ratio of 70% or higher and lower than 90%) | 5 (Herbicidal ratio of 90% or more (almost completely withered)) | 5 (Herbicidal ratio of 90% or more (almost completely withered)) | 5 (Herbicidal ratio of 90% or more (almost completely withered)) | 0 (Herbicidal ratio of 5% or lower (almost no effect)) | 4 (Herbicidal ratio of 70% or higher and lower than 90%) | 5 (Herbicidal ratio of 90% or more (almost completely withered)) | 5 (Herbicidal ratio of 90% or more (almost completely withered)) | 5 (Herbicidal ratio of 90% or more (almost completely withered)) | 5 (Herbicidal ratio of 90% or more (almost completely withered)) | 5 (Herbicidal ratio of 90% or more (almost completely withered)) | 2 (Herbicidal ratio of 20% or higher and lower than 40%) | 5 (Herbicidal ratio of 90% or more (almost completely withered)) | 2 (Herbicidal ratio of 20% or higher and lower than 40%) | 5 (Herbicidal ratio of 90% or more (almost completely withered))
